Results: patent US20220002280A1, “COMPOUNDS AND METHODS OF USE” (Ferro Therapeutics, Inc., priority 2019, published 2022)

How the values were obtained:
[1] = system: A549; assay: Counter-screen in A549 (CellTiter Glo); type: cell-based, human; settings: Homo sapiens, A549 cells, 96 hours
Procedure: Selected compounds were also assayed (counter-screened) in a human lung cancer cell line, A549, a less sensitive cell line to GPX4 inhibitors, as a control to assess differential activity. Cells at a density of 800-2,000 cells/well were seeded in 96-well plates and incubated at 37° C. overnight. A series of nine different concentrations of compound stocks (500×) were created by 3-fold serial dilution in DMSO. These compounds were further diluted in culture media and then added to cells so that the final DMSO concentration was equal to 0.25% or less. After 96 hours of incubation, 50 μL of CellTiter Glo reagent (Promega) was added to each well and luminescence was measured after 10 minutes using EnVision (PerkinElmer). RSL3 (a prototype GPX4 inhibitor, also known as RSL-3) was used as a reference compound titrated from top concentration of up to 30 μM. All compounds were tested initially from 30 µM as the top concentration in duplicates (range of 4.6 nM-30 μM). […] Luminescence from cells treated with DMSO alone was set as Max and % of inhibition was calculated as follows: Inhibition %=(Max-Sample value)/Max*100. Data was analyzed using XL-fit software (ID Business Solutions Ltd.). IC50, relative IC50, or % of top inhibition was calculated.

[2] = system: KP4; assay: Cell viability in KP4 (Table 4); type: cell-based; settings: Homo sapiens, KP-4; KP4 cells
[3] = target: T1, GPX4 (Homo sapiens, UniProt P36969); assay: Western blot gel mobility shift of GPX4; type: cell-based; settings: MiaPaCa-2 cells, FIG. 1
T1 construct: endogenous in cells; host or cells: MiaPaCa-2
T1 sequence (P36969 1-197): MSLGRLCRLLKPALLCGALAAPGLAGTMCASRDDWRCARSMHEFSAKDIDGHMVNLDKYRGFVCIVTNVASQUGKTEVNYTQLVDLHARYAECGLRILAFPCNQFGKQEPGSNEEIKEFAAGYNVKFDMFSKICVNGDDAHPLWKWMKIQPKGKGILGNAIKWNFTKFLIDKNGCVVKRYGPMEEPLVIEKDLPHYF
Procedure: A mobility shift of GPX4 Western blot assay was established to assess target engagement directly in cell-based assay after incubation with compounds and in tumors from mice treated with compounds. Mobility shift can be used as a pharmacodynamic marker for GPX4 irreversible inhibitors. For cell-based assay, cells that are sensitive to GPX4 inhibitors (e.g. MiaPaCa-2) were seeded in 10 cm (2-8×10^6 cells) and grown overnight. Cell seeding number can be adjusted proportionally based on the surface area if smaller dishes are used. Next day, cells were treated with DMSO and various compounds at indicated concentrations for a period of time (e.g. 0.5, 1, 2, 4, 6, or up to 72 hours). Cells were then lysed in 0.3-0.5 mL of RIPA buffer (Sigma) supplemented with protease inhibitors (Roche) and phosphatase inhibitors (Sigma). Lysates were assayed for protein concentration using BCA kit (Pierce). Normalized amount of lysates ([…] protein/lane) were run on 4-12% or 12% NuPage gel (Life Technologies) and the proteins were transferred to the polyvinylidene fluoride (PVDF) or nitrocellulose membrane using iBlot® Transfer Stack (Life Technologies). The membranes were probed with primary antibodies shown in Table 6 at 4° C. overnight after blocking with 1×TBST containing 5% non-fat milk for one hour at room temperature. Similar antibodies from other vendors could also be used in Western blot analysis. After washing 5 times with 1×TBS containing 0.1% Tween20, the membranes were probed with a second application of antibody (e.g. Anti-mouse-HRP, Anti-rabbit-HRP, Anti-Goat-HRP, Anti-mouse IgG Dylight 800 conjugate or Anti-rabbit IgG DyLight 680 conjugate) (1:10000; Cell signaling or similar IR to the antibodies from different vendors) at room temperature for one hour. After washing 5 times, the membranes were scanned using ImageQuant-LAS-4010 (chemiluminiscence) (GE Healthcare) if HRP-conjugated secondary antibodies were used or Odyssey® Imaging System (Licor Biosciences) if infrared conjugated secondary antibodies were used.
In DMSO treated sample, GPX4 ran as doublet—the major lower free or unbound GPX4 band and the minor upper band (likely glutathione-bound GPX4 (Cozza et al., Free Radical Biology and Medicine, Vol 112, pages 1-11, 2017)). The amount of upper band can be reduced if samples were boiled in excess amount of reducing agent dithiothreitol (DTT). GPX4 in SDS-PAGE reducing gel moved slower (appear as a larger molecular weight protein) when treated with covalent, irreversible inhibitors of GPX4 (e.g. RSL-3 and ML162) but not reversible inhibitors (e.g. ML210), presumably due to addition of the covalently linked small molecule to GPX4. Unlike glutathione-bound GPX4, the irreversible inhibitor bound GPX4 upper band cannot be reduced by excess amount of DTT. […]

concentration converting nearly all GPX4 to the upper bands [3]: greater than 50 nM
mobility shift of GPX4 from the lower unbound to upper bound bands [3]: dose-dependent mobility shift of GPX4
Compound: COC(=O)c1ccc([C@H]2c3ccc(OC)cc3C[C@H](C(=O)OC)N2C(=O)CCl)cc1 [Compound 40]
IC50 [1]: 6.24 µM
IC50 [2]: 0.019 µM
